Assay in all cases: High-throughput kinase assay
What all share (assay type): biochemical

For experiment [1], the target named is PRKCB1 (PKC beta I) (Homo sapiens, UniProt P05771). To be noted: 50 nM; read-out: Percent inhibition of kinase activity in vitro, PRKCB1 (PKC beta I). The procedure:
(§1) Screening of Compounds 1-4 against several kinases identified two prominent targets of these compounds as the Aurora A kinase and calcium dependent protein kinase C isoforms α, βI, βII and […] (Tables 1 to 3). IC50s for these two targets were obtained by plotting inhibition levels at 500 nM, 100 nM, 50 nM and 10 nM (FIG. 3). These kinases are directly involved in pathways controlling cell differentiation programs, metastasis signaling, as well as EMT and CSC programming and their overexpression was reported to predict decreased metastasis-free survival.

The target in experiment [2] is FGFR1 (Homo sapiens, UniProt P11362). The conditions noted are these: read-out: Percent inhibition of kinase activity in vitro, FGFR1; for inhibition at 0.1 µM: 100 nM; for inhibition at 0.5 µM: 500 nM. The procedure: as §1
Chain of FGFR1 (P11362 22-822): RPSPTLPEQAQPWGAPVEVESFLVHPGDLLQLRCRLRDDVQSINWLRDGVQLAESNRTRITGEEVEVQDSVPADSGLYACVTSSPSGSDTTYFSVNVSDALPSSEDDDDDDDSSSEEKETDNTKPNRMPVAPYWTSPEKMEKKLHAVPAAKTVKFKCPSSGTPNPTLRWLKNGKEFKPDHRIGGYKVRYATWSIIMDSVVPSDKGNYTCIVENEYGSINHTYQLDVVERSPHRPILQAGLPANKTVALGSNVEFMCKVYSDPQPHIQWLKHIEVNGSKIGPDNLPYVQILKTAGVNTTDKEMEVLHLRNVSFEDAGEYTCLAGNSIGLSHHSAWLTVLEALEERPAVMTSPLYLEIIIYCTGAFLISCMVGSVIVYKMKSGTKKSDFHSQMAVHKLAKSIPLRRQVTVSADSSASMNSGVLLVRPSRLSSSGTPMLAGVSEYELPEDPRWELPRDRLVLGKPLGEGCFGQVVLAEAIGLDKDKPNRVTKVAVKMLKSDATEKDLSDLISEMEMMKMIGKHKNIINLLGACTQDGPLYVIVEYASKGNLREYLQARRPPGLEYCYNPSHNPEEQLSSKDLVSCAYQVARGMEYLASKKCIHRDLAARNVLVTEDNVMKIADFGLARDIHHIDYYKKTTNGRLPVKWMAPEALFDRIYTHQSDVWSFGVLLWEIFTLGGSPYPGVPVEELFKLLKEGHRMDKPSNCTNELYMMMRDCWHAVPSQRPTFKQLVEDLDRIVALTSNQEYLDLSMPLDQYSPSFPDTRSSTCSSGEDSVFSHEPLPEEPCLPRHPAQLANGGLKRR
Experiment [3] addresses T1, AURKA (Aurora A) (Homo sapiens, UniProt O14965).
T1 sequence (O14965 1-403): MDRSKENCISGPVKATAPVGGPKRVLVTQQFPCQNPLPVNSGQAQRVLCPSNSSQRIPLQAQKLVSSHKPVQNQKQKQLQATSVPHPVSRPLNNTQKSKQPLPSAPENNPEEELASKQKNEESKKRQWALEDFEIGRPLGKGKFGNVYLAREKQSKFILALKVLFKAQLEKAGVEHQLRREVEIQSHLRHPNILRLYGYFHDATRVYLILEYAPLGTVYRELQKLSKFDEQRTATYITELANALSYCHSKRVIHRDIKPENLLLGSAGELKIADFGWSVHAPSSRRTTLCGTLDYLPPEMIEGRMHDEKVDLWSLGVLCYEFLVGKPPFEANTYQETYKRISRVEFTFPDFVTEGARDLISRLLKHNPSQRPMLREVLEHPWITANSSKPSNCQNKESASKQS
The conditions noted are these: for inhibition at 0.1 µM: 100 nM; for inhibition at 0.5 µM: 500 nM. As to the method: as §1

Experiment [4] addresses PDGFRA (PDGFR alpha) (Homo sapiens, UniProt P16234). To be noted: read-out: Percent inhibition of kinase activity in vitro, PDGFRA (PDGFR alpha); for inhibition at 0.1 µM: 100 nM; for inhibition at 0.5 µM: 500 nM. The procedure: as §1
For experiment [5], the target named is PRKCQ (PKC theta) (Homo sapiens, UniProt Q04759). The conditions noted are these: 50 nM; read-out: Percent inhibition of kinase activity in vitro, PRKCQ (PKC theta). The procedure: as §1
Chain of PRKCQ (PKC theta) (Q04759 whole entry): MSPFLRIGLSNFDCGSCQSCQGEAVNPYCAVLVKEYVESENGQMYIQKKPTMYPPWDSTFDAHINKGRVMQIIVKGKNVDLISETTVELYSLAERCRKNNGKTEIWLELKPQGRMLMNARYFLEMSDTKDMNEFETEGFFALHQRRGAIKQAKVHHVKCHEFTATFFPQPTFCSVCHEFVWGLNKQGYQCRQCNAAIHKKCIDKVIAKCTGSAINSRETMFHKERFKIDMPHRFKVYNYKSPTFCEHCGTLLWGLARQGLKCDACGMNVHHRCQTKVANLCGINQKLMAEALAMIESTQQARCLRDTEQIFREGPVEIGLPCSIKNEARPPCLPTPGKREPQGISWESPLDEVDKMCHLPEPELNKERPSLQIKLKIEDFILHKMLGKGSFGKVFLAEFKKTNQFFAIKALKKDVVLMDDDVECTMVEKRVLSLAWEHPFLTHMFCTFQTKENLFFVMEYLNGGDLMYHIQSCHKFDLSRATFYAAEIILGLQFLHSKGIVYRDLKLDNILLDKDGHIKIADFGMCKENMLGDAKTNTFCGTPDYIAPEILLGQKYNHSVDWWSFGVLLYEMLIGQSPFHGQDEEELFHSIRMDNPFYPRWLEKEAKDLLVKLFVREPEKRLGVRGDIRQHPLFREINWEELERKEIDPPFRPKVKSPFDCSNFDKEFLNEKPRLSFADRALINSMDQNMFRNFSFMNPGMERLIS
The target of experiment [6] is T2, PRKCZ (PKC zeta) (Homo sapiens, UniProt Q05513).
T2 sequence (Q05513 1-592): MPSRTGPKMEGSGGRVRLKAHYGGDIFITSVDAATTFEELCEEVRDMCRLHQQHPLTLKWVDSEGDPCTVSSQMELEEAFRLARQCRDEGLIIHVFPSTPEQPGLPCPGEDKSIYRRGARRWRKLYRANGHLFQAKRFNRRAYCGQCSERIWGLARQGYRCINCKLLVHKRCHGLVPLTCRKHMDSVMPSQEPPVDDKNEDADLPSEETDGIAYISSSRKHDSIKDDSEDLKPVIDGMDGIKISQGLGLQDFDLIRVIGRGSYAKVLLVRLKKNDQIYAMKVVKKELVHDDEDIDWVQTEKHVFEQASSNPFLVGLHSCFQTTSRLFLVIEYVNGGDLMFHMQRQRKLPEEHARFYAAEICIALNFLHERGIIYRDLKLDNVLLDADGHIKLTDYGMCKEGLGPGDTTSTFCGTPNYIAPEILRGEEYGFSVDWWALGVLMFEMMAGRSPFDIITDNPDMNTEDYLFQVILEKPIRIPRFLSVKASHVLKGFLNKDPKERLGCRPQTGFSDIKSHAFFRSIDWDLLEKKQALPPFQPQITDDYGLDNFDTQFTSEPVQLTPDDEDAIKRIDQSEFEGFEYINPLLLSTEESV
To be noted: 50 nM; read-out: Percent inhibition of kinase activity in vitro, PRKCZ (PKC zeta). As to the method: as §1

Experiment [7] deals with IGF1R (Homo sapiens, UniProt P08069). To be noted: read-out: Percent inhibition of kinase activity in vitro, IGF1R; for inhibition at 0.1 µM: 100 nM; for inhibition at 0.5 µM: 500 nM. As to the method: as §1
Chain of IGF1R (P08069 31-1367): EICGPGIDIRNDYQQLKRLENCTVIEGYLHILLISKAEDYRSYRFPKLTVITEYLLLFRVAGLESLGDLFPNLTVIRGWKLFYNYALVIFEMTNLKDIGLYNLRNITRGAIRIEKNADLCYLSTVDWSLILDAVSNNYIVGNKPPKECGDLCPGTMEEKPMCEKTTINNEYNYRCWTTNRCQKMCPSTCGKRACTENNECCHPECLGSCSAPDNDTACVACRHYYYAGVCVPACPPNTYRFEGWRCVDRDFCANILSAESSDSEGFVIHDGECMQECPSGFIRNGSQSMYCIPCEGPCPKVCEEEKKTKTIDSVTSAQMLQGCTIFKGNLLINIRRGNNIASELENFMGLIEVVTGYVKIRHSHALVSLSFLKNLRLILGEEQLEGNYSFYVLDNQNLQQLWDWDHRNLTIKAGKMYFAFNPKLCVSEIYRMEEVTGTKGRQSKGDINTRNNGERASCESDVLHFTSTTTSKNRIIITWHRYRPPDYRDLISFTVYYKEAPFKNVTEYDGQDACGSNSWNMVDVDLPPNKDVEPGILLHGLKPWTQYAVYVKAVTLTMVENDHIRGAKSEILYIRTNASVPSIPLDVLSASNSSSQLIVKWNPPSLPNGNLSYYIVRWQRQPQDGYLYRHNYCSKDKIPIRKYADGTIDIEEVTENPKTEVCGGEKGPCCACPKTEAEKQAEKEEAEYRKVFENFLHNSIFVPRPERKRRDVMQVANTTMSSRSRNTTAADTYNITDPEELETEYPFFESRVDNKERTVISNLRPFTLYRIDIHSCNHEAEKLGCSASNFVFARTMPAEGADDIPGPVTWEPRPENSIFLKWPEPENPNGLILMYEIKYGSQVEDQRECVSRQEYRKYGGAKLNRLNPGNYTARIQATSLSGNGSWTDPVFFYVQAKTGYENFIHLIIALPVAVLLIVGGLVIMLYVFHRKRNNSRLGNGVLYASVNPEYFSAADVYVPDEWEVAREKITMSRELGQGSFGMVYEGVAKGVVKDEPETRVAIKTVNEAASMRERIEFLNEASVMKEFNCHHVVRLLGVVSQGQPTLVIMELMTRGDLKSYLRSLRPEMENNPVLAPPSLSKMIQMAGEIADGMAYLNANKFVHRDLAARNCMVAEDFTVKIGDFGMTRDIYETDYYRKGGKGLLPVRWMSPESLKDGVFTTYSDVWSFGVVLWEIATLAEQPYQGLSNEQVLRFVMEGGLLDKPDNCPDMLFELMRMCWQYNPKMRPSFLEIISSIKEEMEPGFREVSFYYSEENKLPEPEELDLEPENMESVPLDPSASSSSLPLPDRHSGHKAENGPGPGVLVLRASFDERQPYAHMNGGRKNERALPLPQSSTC
The target of experiment [8] is PRKCA (PKC alpha) (Homo sapiens, UniProt P17252). To be noted: for inhibition at 0.05 µM: 50 nM; for inhibition at 0.1 µM: 100 nM; for inhibition at 0.5 µM: 500 nM. The procedure: as §1
Experiment [9] has as its target T3, AURKC (Aurora C) (Homo sapiens, UniProt Q9UQB9).
T3 sequence (Q9UQB9 1-309): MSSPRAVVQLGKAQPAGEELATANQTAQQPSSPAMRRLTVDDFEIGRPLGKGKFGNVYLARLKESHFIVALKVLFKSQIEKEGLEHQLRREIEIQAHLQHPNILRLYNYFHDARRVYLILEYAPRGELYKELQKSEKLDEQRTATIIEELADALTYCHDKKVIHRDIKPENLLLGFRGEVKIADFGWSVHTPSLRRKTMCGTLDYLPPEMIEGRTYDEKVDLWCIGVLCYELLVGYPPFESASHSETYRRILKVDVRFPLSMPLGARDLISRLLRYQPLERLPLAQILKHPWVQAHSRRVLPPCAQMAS
To be noted: read-out: Percent inhibition of kinase activity in vitro, AURKC (Aurora C); for inhibition at 0.1 µM: 100 nM; for inhibition at 0.5 µM: 500 nM. The procedure:
as §1

Setting [10] is: read-out: Percent inhibition of kinase activity in vitro, AURKA (Aurora A).
Where [11] appears, read: read-out: Percent inhibition of kinase activity in vitro, PRKCA (PKC alpha).
Setting [12] is: from inhibition levels at 500, 100, 50 and 10 nM.

Chain of PDGFRA (PDGFR alpha) (P16234 24-1089): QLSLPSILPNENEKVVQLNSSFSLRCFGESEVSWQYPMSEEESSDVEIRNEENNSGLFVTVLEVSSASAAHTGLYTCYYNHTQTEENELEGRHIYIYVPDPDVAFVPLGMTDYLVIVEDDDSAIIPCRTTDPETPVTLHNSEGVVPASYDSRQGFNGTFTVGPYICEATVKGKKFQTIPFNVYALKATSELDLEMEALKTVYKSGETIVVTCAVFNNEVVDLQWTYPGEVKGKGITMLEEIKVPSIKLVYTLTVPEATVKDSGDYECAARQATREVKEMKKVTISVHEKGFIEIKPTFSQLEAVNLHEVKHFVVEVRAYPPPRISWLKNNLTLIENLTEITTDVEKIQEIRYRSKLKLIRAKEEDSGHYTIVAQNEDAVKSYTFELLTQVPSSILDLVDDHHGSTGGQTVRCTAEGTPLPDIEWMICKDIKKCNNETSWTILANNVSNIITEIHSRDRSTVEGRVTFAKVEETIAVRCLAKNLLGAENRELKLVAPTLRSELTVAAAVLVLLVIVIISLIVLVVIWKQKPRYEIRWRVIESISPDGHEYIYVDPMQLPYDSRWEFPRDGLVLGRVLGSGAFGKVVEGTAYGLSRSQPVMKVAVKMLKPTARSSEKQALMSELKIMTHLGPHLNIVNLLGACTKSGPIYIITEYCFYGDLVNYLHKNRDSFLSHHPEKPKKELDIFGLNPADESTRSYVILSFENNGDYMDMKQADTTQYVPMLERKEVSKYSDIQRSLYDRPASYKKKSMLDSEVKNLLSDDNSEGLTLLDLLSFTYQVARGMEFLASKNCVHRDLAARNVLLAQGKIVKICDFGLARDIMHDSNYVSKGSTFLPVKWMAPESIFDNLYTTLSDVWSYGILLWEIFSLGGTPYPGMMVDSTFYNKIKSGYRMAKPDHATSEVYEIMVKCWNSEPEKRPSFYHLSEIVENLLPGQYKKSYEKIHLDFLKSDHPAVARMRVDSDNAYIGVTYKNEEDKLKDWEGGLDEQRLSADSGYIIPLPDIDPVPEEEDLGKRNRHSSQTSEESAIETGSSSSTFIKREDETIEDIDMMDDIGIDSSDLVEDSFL
Chain of PRKCB1 (PKC beta I) (P05771 whole entry, canonical isoform): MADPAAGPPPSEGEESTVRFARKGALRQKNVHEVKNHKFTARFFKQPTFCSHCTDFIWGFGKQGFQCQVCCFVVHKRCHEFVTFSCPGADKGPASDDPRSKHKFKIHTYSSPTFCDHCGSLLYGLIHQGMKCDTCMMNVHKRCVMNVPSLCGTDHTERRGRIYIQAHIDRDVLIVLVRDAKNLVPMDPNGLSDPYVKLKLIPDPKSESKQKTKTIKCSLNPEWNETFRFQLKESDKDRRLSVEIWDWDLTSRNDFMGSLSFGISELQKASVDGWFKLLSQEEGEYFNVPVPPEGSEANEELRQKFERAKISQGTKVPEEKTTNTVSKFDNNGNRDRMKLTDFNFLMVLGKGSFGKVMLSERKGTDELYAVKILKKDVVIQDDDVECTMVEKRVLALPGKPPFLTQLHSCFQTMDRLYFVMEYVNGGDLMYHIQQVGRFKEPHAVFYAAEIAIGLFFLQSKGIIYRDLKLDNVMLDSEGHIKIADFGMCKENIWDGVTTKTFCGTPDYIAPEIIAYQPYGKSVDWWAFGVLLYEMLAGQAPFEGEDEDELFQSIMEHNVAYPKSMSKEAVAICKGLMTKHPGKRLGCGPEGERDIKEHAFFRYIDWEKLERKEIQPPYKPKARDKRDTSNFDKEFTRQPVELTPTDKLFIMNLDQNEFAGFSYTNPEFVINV

As to `O=c1c2ccccc2[se]n1-c1nc(NC2CCCCC2)c2nc[nH]c2n1` [Compound 1], the inhibition at 0.05 µM amounted to 59% in experiment [1], 62% in experiment [5], 9% in experiment [6] and 68% in experiment [8] (setting [11]). The inhibition at 0.1 µM in [2] stood at 0%; in experiment [3] (setting [10]) it was 89%; in experiment [4] it was 0%; in experiment [7], 0%; in [8] (setting [11]), 83%; in [9], 2%. In addition, the inhibition at 0.5 µM came out at 2% in experiment [2]; 94% in experiment [3] (setting [10]); 3% in experiment [4]; 12% in experiment [7]; 98% in experiment [8] (setting [11]); 10% in [9].
Turning to `O=c1c2ccccc2[se]n1-c1nc(NC2CC[Se]C2)c2nc[nH]c2n1` (centres unmarked) [Compound 2], the inhibition at 0.5 µM in experiment [2] is 0%; in experiment [3] (setting [10]), 97%; in experiment [4], 4%; in [7], 11%; in [8] (setting [11]), 96%; in experiment [9], 11%. Moreover, the figures for the inhibition at 0.1 µM in experiment [3] (setting [10]), in [8] (setting [11]) and in experiment [9] were 93%, 84% and 0%, respectively.
With `C[C@@H]1C(Nc2nc(-n3[se]c4ccccc4c3=O)nc3[nH]cnc23)C[C@H]2C[C@@H]1C2(C)C` (some centres unmarked) [Compound 3], the inhibition at 0.5 µM in experiment [2] was determined as 13%; in experiment [3] (setting [10]), 99%; in experiment [4], 5%; in experiment [7], 13%; in experiment [8] (setting [11]), 86%; in experiment [9], 7%. Besides, the inhibition at 0.1 µM was 78% in [3] (setting [10]), 45% in experiment [8] (setting [11]) and 0% in experiment [9].
As to `O=c1c2ccccc2[se]n1-c1nc(N[C@H]2CC[Se]C2)c2nc[nH]c2n1` [Compound 4], the inhibition at 0.05 µM in experiment [1] was 95%; in [3] (50 nM, read-out: Percent inhibition of kinase activity in vitro, AURKA (Aurora A)), 87%; in experiment [5], 98%; in experiment [6] it was 12%; in experiment [8] (setting [11]) it was 101%. The inhibition at 0.1 µM in experiment [2] was 0%; in experiment [3] (setting [10]), 95%; in experiment [4] it was 1%; in [7], 4%; in experiment [8] (setting [11]), 98%; in experiment [9], 0%. Further, the inhibition at 0.01 µM in experiment [3] (10 nM, read-out: Percent inhibition of kinase activity in vitro, AURKA (Aurora A)) was 55%; in [8] (10 nM, read-out: Percent inhibition of kinase activity in vitro, PRKCA (PKC alpha)) it was 22%. In addition, the values for the half-maximal inhibitory concentration (IC50) in experiment [3] (setting [12]) and in [8] (setting [12]) were 3.8 nM and 10.9 nM, respectively.
For `O=C1c2ccccc2CN1c1nc(NC2CCCCC2)c2nc[nH]c2n1` [SLLN-6C, reference compound], the inhibition at 0.05 µM in experiment [1] was 5%; in experiment [5], 0%; in [6] it was 9%; in experiment [8] (setting [11]) it was 14%. Moreover, the inhibition at 0.1 µM in experiment [2] amounted to 0%; in experiment [3] (setting [10]), 4%; in experiment [4] it was 0%; in [7], 0%; in experiment [8] (setting [11]), 0%; in [9] it was 0%.

In general, inhibition refers to the change of the read-out against control, counted positive when it falls. As usually defined, the IC50 is the concentration at which inhibition is half-maximal. The low end stands for higher potency, the high end for lower potency.
